# According to US20210177879A1, “VITAMIN D RECEPTOR AGONIST” (Guanghzou University of Chinese Medicine, priority 2018, published 2021):
# Tests used:
# [1] = tested on: AOM/DSS colon cancer model; assay: AOM/DSS colon cancer model, Experiment 1 (body weight, anal prolapse, organ coefficient, colon and tumor indexes); type: in vivo, Balb/c mice
# Description: (§1) Experimental method: 90 Balb/c mice of 6-8 weeks were purchased from the Experimental Animal Center in Guangzhou University of Chinese Medicine, weighed about 18-22 g, and subjected to adaptive feeding for 10 days. Modeling was divided into three stages. In the first stage, except for the normal group of animals being given saline injection, each of the other animals were intraperitoneally injected with a carcinogen AOM (10 mg/kg), and given free access to 2% DSS water from the next day for 7 days, and then given access to replaced regular drinking water for 14 days. In the second stage, the animals were given free access to 2% DSS water for 10 days, and then given access to replaced regular drinking water for 14 days. In the third stage, the animals were given free access to 2% DSS water for 10 days, and then given access to replaced regular drinking water for 11 days. The normal group was given access to regular drinking water throughout the experiment. The diet, water drinking and body weights of the animals were recorded daily and DAI scores were made, and the animals were killed and harvested at the 10th week. In this experiment, the animals were divided into groups and administrated on the first day of a modeling period of the second stage, and the total number of groups was set to 5 groups. The first group was a blank control group (Normal), in which a total of 12 animals were given access to drinking water by gavage; the second group was a model group (AOM/DSS), in which a total of 22 animals were given access to drinking water by gavage; the third group was a positive drug control group (5-ASA+AOM/DSS), in which a total of 22 animals were given access to 100 mg/kg of mesalazine (5-ASA) by gavage; and the fourth and fifth groups were monotropein-intervening groups (Mo+AOM/DSS), which were a high dose of 8 mg/kg and a low dose of 2 mg/kg, respectively, with 17 animals in each group. Dosing was conducted daily until dissection.
# (1) The calculation formula of a DAI score: DAI value=(score of weight loss+score of stool trait+score of blood in stool)/3.
# The animals were anesthetized and harvested, and the liver, spleen, thymus and testis were weighed to calculate the organ coefficient; the colon tissue was taken, measured with a ruler for the length, and measured with a vernier caliper for the thickness, and the number and size of tumors and degree of colonic ulceration and adhesion were recorded; respective tissues were cut into small pieces and fixed, and the remaining tissues were frozen and stored; and the fixed tissues were used for HE staining and immunohistochemistry.
# intestinal permeability = assay: Determination of intestinal permeability in serum with FITC-dextran; type: in vivo, Balb/c mice; settings: after third stage of modeling; monotropein high and low doses, 5-ASA 100 mg/kg
# Description: Experimental method: 90 Balb/c mice of 6-8 weeks were purchased from the Experimental Animal Center in Guangzhou University of Chinese Medicine, weighed about 18-22 g, and subjected to adaptive feeding for 10 days. Modeling was divided into three stages. In the first stage, except for the normal group of animals being given saline injection, each of the other animals were intraperitoneally injected with a carcinogen AOM (10 mg/kg), and given free access to 2% DSS water from the next day for 7 days, and then given access to replaced regular drinking water for 14 days. In the second stage, the animals were given free access to 2% DSS water for 10 days, and then given access to replaced regular drinking water for 14 days. In the third stage, the animals were given free access to 2% DSS water for 10 days, and then given access to replaced regular drinking water for 11 days. […] The diet, water drinking and body weights of the animals were recorded daily and DAI scores were made, and the animals were killed and harvested at the 10th week. […] 25 μl of serum was taken and added with 100 μl PBS, and determined on a microplate reader for its fluorescence intensity, where the wavelength of the exciting light was 480 nm, and the wavelength of the emitting light was 520 nm. A standard curve was made and the sample concentration was calculated.
# [2] = tested on: peripheral blood macrophages; assay: Typing of peripheral blood macrophages by flow cytometry; type: in vivo, Balb/c mice; settings: compared with normal group
# Description: as §1, with “The first group was a blank control group (Normal), in which a total of 12 animals were given access to drinking water by gavage; the second group was a model group (AOM/DSS), in which a total of 22 animals were given access to drinking water by gavage; the third group was a positive drug control group (5-ASA+AOM/DSS), in which a total of 22 animals were given access to 100 mg/kg of mesalazine (5-ASA) by gavage; and the fourth and fifth groups were monotropein-intervening groups (Mo+AOM/DSS), which were a high dose of 8 mg/kg and a low dose of 2 mg/kg, respectively, with 17 animals in each group.” left out, “dissection. […]” for “dissection.”
# HT29 colon cancer cells = assay: In vitro proliferation inhibition of HT29 colon cancer cells; type: cell-based; settings: concentration of 1 uM; compared with blank control group
# Description: (§2) The HT29 cells were thawed, and cultured in a changed medium after 24 hours. Medium preparation method: 6% serum, 1% of a bispecific antibody+a 1640 basal medium. After grown to confluent, the cells were digested and subcultured to expand the number of cells. When reached the required amount, the cells were digested by trypsin, centrifuged, and resuspended in PBS to prepare a cell suspension of 1×10^8 cells/ml. A part of the cell suspension was added with the monotropein, desacetyl asperulosidic acid, asperuloside, and asperulosidic acid respectively, and the inhibition rate (%) of tumor cell proliferation by each of these different compounds was examined.
# [3] = tested on: SMB-231 pancreatic cancer cells; assay: In vitro proliferation inhibition of SMB-231 pancreatic cancer cells; type: cell-based; settings: concentration of 1 uM; compared with blank control group
# Description: as §2, with “SMB-231 pancreatic cancer” for “HT29”
structure (smiles),measurement,setting,value
O=C(O)C1=CO[C@@H](O[C@@H]2O[C@H](CO)[C@@H](O)[C@H](O)[C@H]2O)[C@H]2[C@@H]1C=C[C@]2(O)CO [monotropein],spleen enlargement caused by AOM/DSS modeling (organ coefficient),"[1]; monotropein high (8 mg/kg) and low (2 mg/kg) doses, 5-ASA 100 mg/kg",significantly reduce the spleen enlargement
same,anal prolapse occurrence at the third stage of modeling,"[1]; per group, monotropein 8 mg/kg and 2 mg/kg groups (17 animals each), 5-ASA 100 mg/kg (22 animals), gavage daily, model group 8-12",2-6 animals
same,intestinal permeability (FITC-dextran in serum) vs model group,intestinal permeability,significant differences
same,M1/M2 ratio of peripheral blood macrophages,[2],up-regulating trend
same,proliferation of HT29 colorectal cancer cells in vitro,HT29 colon cancer cells,significantly inhibit the proliferation
same,proliferation of SMB-231 pancreatic cancer cells in vitro,[3],significantly inhibit the proliferation
